The values that follow come from ChEMBL document CHEMBL1201862, “PubChem BioAssay data set” (2004).

Common to all, as to test: NCI tumour cell line growth inhibition, 48 h
Test [1] relates to HCT-116.
Test [2] relates to UACC-257.
In test [3] the test system is UO-31.
Test [4] deals with OVCAR-8.
Test [5] deals with OVCAR-3.
Test [6] relates to SK-MEL-5.
Test [7] deals with SK-OV-3.
Test [8] concerns NCI-H23.
In test [9] the test system is SN12C.
Test [10] deals with A549.
In test [11] the test system is MOLT-4.
Test [12] relates to HOP-62.
Test [13] relates to SF-295.
The subject of test [14] is RPMI-8226.
Test [15] concerns TK-10.
Test [16] relates to NCI-H226.
For test [17], the system named is SF-268.
Test [18] concerns OVCAR-5.

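Following 48 hours of exposure in 96-well plates, responses at five concentrations were used to interpolate endpoints linearly. GI50 is the concentration that inhibits growth by half.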 Calls of active or inactive are those of the source. Cut-off read from the data, not from the text of the source: active = GI50 up to about 1.1 µM and inactive = higher.

Take `COc1ccc(C2C(C(=O)O)=C(COC(C)=O)Oc3cc4c(cc32)OCO4)c(OC)c1` (centres undefined): the GI50 in test [1], in test [2], in test [3], in [4], in [5] and in [6] was > 100 µM (inactive) throughout. In addition, the GI50 in [7], in test [8], in test [9], in test [10], in test [11] and in [12] was > 100 µM (inactive) throughout. In addition, the GI50 in [13], in test [14] and in test [15] was > 100 µM (inactive) throughout.

For the compound `COc1cc2c(cc1O)CCN[C@@]21CS[C@H]2c3c(OC(C)=O)c(C)c4c(c3C(COC1=O)N1C2C2NC(Cc3cc(C)c(OC)c(O)c32)[C@@H]1C#N)OCO4` (some centres undefined), the GI50 in [1], in test [3], in test [5], in test [16], in test [17] and in [6] was < 0.01 µM (active) each time. Besides, the GI50 in test [8], in test [9], in test [10], in test [11], in [12] and in test [14] was < 0.01 µM (active) in each case. Further, the GI50 in test [15] is < 0.01 µM (active).

With `O=C1C(c2ccc([N+](=O)[O-])cc2)=[N+]([O-])c2ccc([N+](=O)[O-])cc21`, the GI50 in test [3] was 48.9 µM (inactive); in test [4] it was 29.3 µM (inactive); in [5], 17.3 µM (inactive); in test [16], 37.2 µM (inactive); in test [17] it was 40.8 µM (inactive); in test [6], 30.8 µM (inactive). The GI50 in [7] is 36.4 µM (inactive); in test [8], 33.8 µM (inactive); in test [10], 37.8 µM (inactive); in test [18], > 100 µM (inactive); in [11] it was 27 µM (inactive); in [13] it was 56.1 µM (inactive). Besides, the GI50 in [14] is 15.5 µM (inactive); in [15], 77.8 µM (inactive).

On to `COC(=O)C(=O)C(C(=O)C(=O)Nc1ccccc1C(N)=O)c1nc2ccc(C(=O)c3ccccc3)cc2nc1O` (centres undefined), for which the GI50 was > 100 µM (inactive) in [1]; > 100 µM (inactive) in test [2]; 58.6 µM (inactive) in [3]; > 100 µM (inactive) in [4]; 92.7 µM (inactive) in [16]; > 100 µM (inactive) in [17]. Also, the GI50 in test [6] is 52.6 µM (inactive); in [8], > 100 µM (inactive); in [9] it was > 100 µM (inactive); in test [10], > 100 µM (inactive); in test [18] it was > 100 µM (inactive); in test [11] it was 92.5 µM (inactive). Moreover, the GI50 in test [13], in [14] and in test [15] was > 100 µM (inactive) throughout.

Regarding `NCC1(N2CCOCC2)C2CCCC21CO` (centres undefined), the GI50 in test [1], in test [2], in test [3], in [4], in test [5] and in test [16] was > 100 µM (inactive) in each case. The GI50 in [17], in test [6], in test [7], in test [8], in [9] and in [10] was > 100 µM (inactive) each time. Besides, the GI50 in [18], in test [11], in [12], in [13] and in test [14] was > 100 µM (inactive) in each case.

Turning to `COc1ccc([Se][Se]c2ccc(OC)cc2OC)c(OC)c1`, the GI50 was 2.75 µM (inactive) in [1]; 2.45 µM (inactive) in test [2]; 2.4 µM (inactive) in [3]; 4.75 µM (inactive) in test [4]; 3.52 µM (inactive) in [5]; 2.9 µM (inactive) in test [16]. Further, the GI50 in [17] is 2.19 µM (inactive); in test [6] it was 7.85 µM (inactive); in test [7], 32.4 µM (inactive); in test [8] it was 2.92 µM (inactive); in [9], 2 µM (inactive); in [10] it was 8.89 µM (inactive). Besides, the GI50 in test [11] is 3.07 µM (inactive); in [12] it was > 10 µM (inactive); in [13], 2.1 µM (inactive); in [14] it was 2.48 µM (inactive); in [15], 4.06 µM (inactive).

With `CCOc1cc2ccc3c4cc(OC)c(OC)cc4cnc3c2cc1OCC`, the GI50 in test [1], in test [2], in test [3], in [4], in [5] and in test [17] was > 100 µM (inactive) throughout. The GI50 in test [6], in [7], in test [8], in [9], in test [10] and in test [18] was > 100 µM (inactive) in each case. In addition, the GI50 in test [11], in test [12], in test [13], in test [14] and in test [15] was > 100 µM (inactive) each time.

Regarding `Nc1ccc(C(=O)CC2(O)C(=O)Nc3c(Cl)cc(Cl)cc32)cc1` (centres undefined), the GI50 in test [1] was 66.7 µM (inactive); in test [2], 75.5 µM (inactive); in test [3] it was > 100 µM (inactive); in test [4] it was > 100 µM (inactive); in [5], > 100 µM (inactive); in [16], > 100 µM (inactive). Also, the GI50 in [17] is > 100 µM (inactive); in test [7], > 100 µM (inactive); in test [8] it was 83 µM (inactive); in test [9], > 100 µM (inactive); in test [10], > 100 µM (inactive); in test [18] it was > 100 µM (inactive). The GI50 in test [11] is 46.8 µM (inactive); in [12], > 100 µM (inactive); in test [13], > 100 µM (inactive); in [14], 50.9 µM (inactive); in test [15], > 100 µM (inactive).

As for `Cn1cc2ccccc2c1-c1nc(F)nc(Oc2ccc3c(c2)CC[C@@H]2C3CC[C@]3(C)C(O)CCC23)n1` (some centres undefined), the GI50 was 17.5 µM (inactive) in test [1]; 18.8 µM (inactive) in test [2]; 21.7 µM (inactive) in test [3]; 17.4 µM (inactive) in test [4]; 17.7 µM (inactive) in [5]; 52.7 µM (inactive) in test [16]. For the same compound, the GI50 in test [17] is 17.3 µM (inactive); in test [6], 15 µM (inactive); in [7], 17.2 µM (inactive); in test [8] it was > 10 µM (inactive); in test [9], 15.4 µM (inactive); in test [10], 22.1 µM (inactive). The GI50 in [18] is 18.6 µM (inactive); in test [11], 17.6 µM (inactive); in [12], 16.7 µM (inactive); in test [13], 15.3 µM (inactive); in [15], 16.2 µM (inactive).

For the compound `COc1cccc(NC(=O)CSc2nnc(-c3ccc(/N=C\c4ccc(Cl)cc4)cc3)o2)c1`, the GI50 in [1] is 17.2 µM (inactive); in test [2], > 10 µM (inactive); in test [3] it was 18.5 µM (inactive); in test [4], 24.4 µM (inactive); in test [16] it was 22.8 µM (inactive); in test [17], 19.4 µM (inactive). Also, the GI50 in [6] is 18.6 µM (inactive); in test [7], 33.3 µM (inactive); in [8], 19.8 µM (inactive); in test [9] it was 21.2 µM (inactive); in test [10], 27.2 µM (inactive); in [11] it was 23.4 µM (inactive). Moreover, the GI50 in test [12] was 31.6 µM (inactive); in test [13], 20.2 µM (inactive); in test [14], 18.2 µM (inactive); in [15], 30.6 µM (inactive).

`COc1cc(C(Cc2ccccc2)NC(C)=O)oc(=O)c1` (centres undefined): the GI50 in [2] was > 100 µM (inactive); in test [3], > 100 µM (inactive); in test [4], > 100 µM (inactive); in test [5] it was > 100 µM (inactive); in [16], > 100 µM (inactive); in test [17], 89.1 µM (inactive). Also, the GI50 in test [6], in test [7], in [8], in test [9], in [10] and in test [18] was > 100 µM (inactive) each time. Also, the GI50 in test [12] is > 100 µM (inactive); in test [13], > 100 µM (inactive); in test [14], > 100 µM (inactive); in test [15] it was 4.14 µM (inactive).

For the compound `COC(=O)/C=C/C(=O)C1C(C(=O)OC)C2(C(=O)OC)CCC1(C(=O)OC)N2` (centres undefined), the GI50 in test [1], in test [3], in test [4], in [5], in [17] and in test [6] was > 100 µM (inactive) throughout. In addition, the GI50 in test [7], in test [8], in [10], in [18], in test [11] and in test [12] was > 100 µM (inactive) throughout. For the same compound, the GI50 in test [13], in [14] and in [15] was > 100 µM (inactive) in each case.
